In EP2970215B1, “PYRROLIDINE DERIVATIVES, PHARMACEUTICAL COMPOSITIONS CONTAINING THEM, AND THEIR USE IN THERAPY” (AbbVie Deutschland GmbH & Co. KG, priority 2013, dated 2014):

Molecular target: T1, human GlyT1c transporter (Homo sapiens, UniProt P48067)
T1 construct: expressed in transfected cells; host or cells: CHO cells (recombinant; line hGlyT1c_5_CHO is named for the uptake assay)
T1 sequence (P48067 1-706): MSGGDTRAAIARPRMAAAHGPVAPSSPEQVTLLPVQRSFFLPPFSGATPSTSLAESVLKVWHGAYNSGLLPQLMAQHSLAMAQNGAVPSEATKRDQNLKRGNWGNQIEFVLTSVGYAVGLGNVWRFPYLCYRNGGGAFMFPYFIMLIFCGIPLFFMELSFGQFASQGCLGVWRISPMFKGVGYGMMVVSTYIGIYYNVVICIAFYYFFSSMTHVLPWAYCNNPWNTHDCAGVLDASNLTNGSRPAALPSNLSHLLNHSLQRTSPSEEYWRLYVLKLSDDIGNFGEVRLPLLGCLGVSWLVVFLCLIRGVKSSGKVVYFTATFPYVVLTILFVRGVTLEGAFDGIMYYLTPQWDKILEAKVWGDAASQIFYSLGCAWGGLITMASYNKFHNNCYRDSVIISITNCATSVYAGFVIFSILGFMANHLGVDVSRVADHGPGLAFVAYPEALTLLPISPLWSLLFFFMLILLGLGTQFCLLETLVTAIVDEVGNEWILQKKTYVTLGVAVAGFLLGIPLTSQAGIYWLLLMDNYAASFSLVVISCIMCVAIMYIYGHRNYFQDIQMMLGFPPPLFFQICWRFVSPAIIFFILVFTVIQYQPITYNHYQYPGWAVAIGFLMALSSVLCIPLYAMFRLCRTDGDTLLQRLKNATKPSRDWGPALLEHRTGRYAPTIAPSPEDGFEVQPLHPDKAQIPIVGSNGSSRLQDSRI
Test: Radioligand binding assay using recombinant CHO cell membranes expressing human GlyT1
Settings: radioligand binding to human GlyT1c transporter-expressing membranes
Description: 2. Radioligand binding assays using recombinant CHO cell membranes expressing human GlyT1: […]

Row | Compound | Ki [µM]
1 | Cn1cnc(S(=O)(=O)N2C[C@@H](C(=O)NCC3CC3)[C@H](c3ccc(F)cc3)C2)c1 [Example 586, (3S,4R)-N-(cyclopropylmethyl)-4-(4-fluorophenyl)-1-[(1-methyl-1H-imidazol-4-yl)sulfonyl]pyrrolidine-3-carboxamide] | ≤ 1
2 | CC(C)OCCNC(=O)[C@@H]1CN(S(=O)(=O)c2cn(C)cn2)C[C@H]1c1ccc(F)cc1 [Example 587, (3S,4R)-4-(4-fluorophenyl)-1-[(1-methyl-1H-imidazol-4-yl)sulfonyl]-N-[2-(propan-2-yloxy)ethyl]pyrrolidine-3-carboxamide] | ≤ 10
3 | Cn1cnc(S(=O)(=O)N2C[C@@H](CNCC3CC3)[C@H](c3ccc(F)cc3)C2)c1 [Example 607, 1-cyclopropyl-N-({(3R,4R)-4-(4-fluorophenyl)-1-[(1-methyl-1H-imidazol-4-yl)sulfonyl]pyrrolidin-3-yl}methyl)methanamine] | ≤ 10
4 | Cn1cnc(S(=O)(=O)N2CC(Nc3ccc(F)c(F)c3)C(C3CCCO3)C2)c1 (stereo not drawn) [Example 610, N-(3,4-difluorophenyl)-1-[(1-methyl-1H-imidazol-4-yl)sulfonyl]-4-[-tetrahydrofuran-2-yl]pyrrolidin-3-amine] | ≤ 10
5 | CCc1cc(N[C@H]2CN(S(=O)(=O)c3cn(C)cn3)C[C@@H]2c2ccc(F)cc2)ncn1 [Example 613, 6-ethyl-N-{(3R,4S)-4-(4-fluorophenyl)-1-[(1-methyl-1H-imidazol-4-yl)sulfonyl]pyrrolidin-3-yl}pyrimidin-4-amine] | ≤ 1
6 | CC(C)c1cc(N[C@H]2CN(S(=O)(=O)c3cn(C)cn3)C[C@@H]2c2ccc(F)cc2)ncn1 [Example 614, N-{(3R,4S)-4-(4-fluorophenyl)-1-[(1-methyl-1H-imidazol-4-yl)sulfonyl]pyrrolidin-3-yl}-6-(propan-2-yl)pyrimidin-4-amine] | ≤ 1
7 | Cc1nc(N[C@H]2CN(S(=O)(=O)c3cn(C)cn3)C[C@@H]2c2ccc(F)cc2)cc(C(F)(F)F)n1 [Example 615, N-{(3R,4S)-4-(4-fluorophenyl)-1-[(1-methyl-1H-imidazol-4-yl)sulfonyl]pyrrolidin-3-yl}-2-methyl-6-(trifluoromethyl)pyrimidin-4-amine] | ≤ 1
8 | CCCc1cc(N[C@H]2CN(S(=O)(=O)c3cn(C)cn3)C[C@@H]2c2ccc(F)cc2)ncn1 [Example 616, N-{(3R,4S)-4-(4-fluorophenyl)-1-[(1-methyl-1H-imidazol-4-yl)sulfonyl]pyrrolidin-3-yl}-6-propylpyrimidin-4-amine] | ≤ 1
9 | Cn1cnc(S(=O)(=O)N2C[C@H](Nc3cc(C(F)(F)F)c(Cl)cn3)[C@@H](c3ccc(F)cc3)C2)c1 [Example 617, 5-chloro-N-{(3R,4S)-4-(4-fluorophenyl)-1-[(1-methyl-1H-imidazol-4-yl)sulfonyl]pyrrolidin-3-yl}-4-(trifluoromethyl)pyridin-2-amine] | ≤ 0.01
10 | Cn1cnc(S(=O)(=O)N2C[C@@H](Nc3ccc(Cl)c(C(F)(F)F)c3)[C@H](C3CCCO3)C2)c1 (stereo partly drawn) [Example 618, (3S,4R)-N-[4-chloro-3-(trifluoromethyl)phenyl]-1-[(1-methyl-1H-imidazol-4-yl)sulfonyl]-4-(tetrahydrofuran-2-yl)pyrrolidin-3-amine] | ≤ 1
11 | Cn1cnc(S(=O)(=O)N2C[C@H](Nc3ccc(Cl)c(C(F)(F)F)c3)[C@@H](C3CCCO3)C2)c1 (stereo partly drawn) [Example 619, (3R,4S)-N-[4-chloro-3-(trifluoromethyl)phenyl]-1-[(1-methyl-1H-imidazol-4-yl)sulfonyl]-4-(tetrahydrofuran-2-yl)pyrrolidin-3-amine] | ≤ 1
12 | CCOc1cc(N[C@H]2CN(S(=O)(=O)c3cn(C)cn3)C[C@@H]2c2ccccc2)ncn1 [Example 620, 6-ethoxy-N-{(3R,4S)-1-[(1-methyl-1H-imidazol-4-yl)sulfonyl]-4-phenylpyrrolidin-3-yl}pyrimidin-4-amine] | ≤ 1
13 | CC(C)COc1cc(N[C@H]2CN(S(=O)(=O)c3cn(C)cn3)C[C@@H]2c2ccccc2)ncn1 [Example 624, N-{(3R,4S)-1-[(1-methyl-1H-imidazol-4-yl)sulfonyl]-4-phenylpyrrolidin-3-yl}-6-(2-methylpropoxy)pyrimidin-4-amine] | ≤ 1

Next, values leading:

Row | Ki [µM] | Compound
14 | ≤ 10 | COCCCN[C@H]1CN(S(=O)(=O)c2cn(C)cn2)C[C@@H]1c1ccccc1 [Example 588, (3R,4S)-N-(3-methoxypropyl)-1-[(1-methyl-1H-imidazol-4-yl)sulfonyl]-4-phenylpyrrolidin-3-amine]
15 | ≤ 1 | CCOCCCN[C@H]1CN(S(=O)(=O)c2cn(C)cn2)C[C@@H]1c1ccccc1 [Example 589, (3R,4S)-N-(3-ethoxypropyl)-1-[(1-methyl-1H-imidazol-4-yl)sulfonyl]-4-phenylpyrrolidin-3-amine]
16 | ≤ 10 | COCC1(CN[C@H]2CN(S(=O)(=O)c3cn(C)cn3)C[C@@H]2c2ccccc2)CC1 [Example 590, (3R,4S)-N-{[1-(methoxymethyl)cyclopropyl]methyl}-1-[(1-methyl-1H-imidazol-4-yl)sulfonyl]-4-phenylpyrrolidin-3-amine]
17 | ≤ 10 | COCCN[C@H]1CN(S(=O)(=O)c2cn(C)cn2)C[C@@H]1c1ccccc1 [Example 600, (3R,4S)-N-(2-methoxyethyl)-1-[(1-methyl-1H-imidazol-4-yl)sulfonyl]-4-phenylpyrrolidin-3-amine]
18 | ≤ 1 | COc1nc(N[C@H]2CN(S(=O)(=O)c3cn(C)cn3)C[C@@H]2c2ccccc2)cc(C(F)(F)F)n1 [Example 605, 2-methoxy-N-{(3R,4S)-1-[(1-methyl-1H-imidazol-4-yl)sulfonyl]-4-phenylpyrrolidin-3-yl} -6-(trifluoromethyl)pyrimidin-4-amine]
19 | ≤ 0.1 | Cn1cnc(S(=O)(=O)N2C[C@H](Nc3cc(Cl)ncn3)[C@@H](c3ccccc3)C2)c1 [Example 606, 6-chloro-N-{(3R,4S)-1-[(1-methyl-1H-imidazol-4-yl)sulfonyl]-4-phenylpyrrolidin-3-yl}pyrimidin-4-amine]
20 | ≤ 10 | CCOCCN[C@H]1CN(S(=O)(=O)c2cn(C)cn2)C[C@@H]1c1ccccc1 [Example 608, (3R,4S)-N-(2-ethoxyethyl)-1-[(1-methyl-1H-imidazol-4-yl)sulfonyl]-4-phenylpyrrolidin-3-amine]
21 | ≤ 1 | CCCOCCN[C@H]1CN(S(=O)(=O)c2cn(C)cn2)C[C@@H]1c1ccccc1 [Example 609, (3R,4S)-1-[(1-methyl-1H-imidazol-4-yl)sulfonyl]-4-phenyl-N-(2-propoxyethyl)pyrrolidin-3-amine]
22 | ≤ 1 | Cn1cnc(S(=O)(=O)N2C[C@H](Nc3cc(C4CC4)ncn3)[C@@H](c3ccccc3)C2)c1 [Example 612, 6-cyclopropyl-N-{(3R,4S)-1-[(1-methyl-1H-imidazol-4-yl)sulfonyl]-4-phenylpyrrolidin-3-yl}pyrimidin-4-amine]
23 | ≤ 10 | COc1cc(N[C@H]2CN(S(=O)(=O)c3cn(C)cn3)C[C@@H]2c2ccccc2)ncn1 [Example 621, 6-methoxy-N-{(3R,4S)-1-[(1-methyl-1H-imidazol-4-yl)sulfonyl]-4-phenylpyrrolidin-3-yl}pyrimidin-4-amine]
24 | ≤ 0.01 | CCCCCCO[C@H]1CN(S(=O)(=O)c2cn(C)cn2)C[C@@H]1c1ccc(F)cc1 [Example 625, 4-{[(3S,4R)-3-(4-fluorophenyl)-4-(hexyloxy)pyrrolidin-1-yl]sulfonyl}-1-methyl-1H-imidazole]
